From patent US20260209260A1, “VECTORIZED NHC IRIDIUM(III) COMPLEXES AND USE THEREOF IN PHOTODYNAMIC THERAPY AND/OR DIAGNOSTIC” (CENTRE NATIONAL DE LA RECHERCHE SCIENTIFIQUE, priority 2022, published 2026)
Where two headings read alike, the source gives them in different places.

Experiments:
Format in all cases: cell-based, Human
[1] = test system: PSMA-positive cells (C4-2b and 22Rv1); assay: Cell viability assay (MTT), summary over PSMA-positive cancer cells; details: blue light 458 nm; read-out: GI50 mean over PSMA-positive cancer cells, irradiated
Procedure: (§1) Cells were grown in humidified incubators at 37° C. in 5% CO2. Murine MC3T3 osteoblast and NIH-3T3 fibroblast cells-used as non-tumor cell models-were cultured in a-MEM medium and DMEM medium supplemented with 10% fetal bovine serum (FBS) and 1% Penicillin/Streptomycin (P/S) antibiotics, respectively. Human T24 bladder, MGHU3 bladder, Scaber bladder, A549 lung, MCF7 breast, MiaPaCa2 pancreas cancer cells were cultured in DMEM medium supplemented with 10% FBS and 1% P/S antibiotics. Human ASPC-1 pancreas, PC-3 prostate, DU-145 prostate, C4-2B prostate and 22rV1 prostate cancer cells were cultured in RPMI medium supplemented with 10% FBS and 1% P/S antibiotics. Human Hela cervix and HepG2 liver cancer cells were cultured EMEM medium supplemented with 10% FBS and 1% P/S antibiotics.
(§2) MTT reagent (3-(4,5-dimethylthiazol-2-yl)-2,5-diphenyltetrazolium bromide) was used to determine cell death as originally described by Mosmann. […] The concentration of the complexes was calculated based on the elemental composition of the complexes determined by the elemental analyses. […] After solubilization with 500 μL of DMSO, formazan was quantified spectrophotometrically with a microplate reader at 570 nm absorbance (ClarioSTAR, BMG LabTech). […] All the results were calculated from data obtained in at least three independent experiments performed in triplicate. […]

[2] = test system: DU-145 prostate cancer cells (PSMA-negative); assay: Cell viability assay (MTT), dark and blue light; details: for Photosensitizing index (PI): DU145, dark vs blue light
Procedure, shortened: (§3)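 Dark versus photoactivated cytotoxicity is compared by MTT in RPMI-grown cells, with 72 h total compound exposure at 0.1% DMSO. Blue light (458 nm) is given for 10 min after an 8 h incubation; data come from at least three independent triplicate experiments.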

[3] = test system: 22rV1 prostate cancer cells (PSMA-positive); assay: Cell viability assay (MTT), dark and blue light; details: for Photosensitizing index (PI): 22Rv1, dark vs blue light
Procedure, shortened: as §3

[4] = test system: C4-2B prostate cancer cells (PSMA-positive); assay: Cell viability assay (MTT), dark and blue light; details: for Photosensitizing index (PI): dark vs blue light; for SI (vs MC3T3) C4-2b Blue / SI (vs NIH-3T3) C4-2b Blue: blue light 458 nm
Procedure, shortened: as §3

[5] = test system: PSMA-negative cells (PC-3 and DU145); assay: Cell viability assay (MTT), summary over PSMA-negative cancer cells; details: blue light 458 nm; read-out: GI50 mean over PSMA-negative cancer cells, irradiated
Procedure: as §1, §2

[6] = 8 h in the dark, blue light 458 nm 10 min, then dark up to 72 h, read-out: GI50 DU145 Blue
[7] = DU145, blue light, read-out: GI50
[8] = in the dark, 72 h, read-out: GI50 DU145 Dark
[9] = 22Rv1, blue light, read-out: GI50
[10] = 8 h in the dark, blue light 458 nm 10 min, then dark up to 72 h, read-out: GI50 22Rv1 Blue
[11] = in the dark, 72 h, read-out: GI50 22Rv1 Dark
[12] = C4-2b, blue light, read-out: GI50

| Structure (SMILES) | GI50 [1] [nM] | GI50 [2, 6] [nM] | GI50 [2, 7] [nM] | Photosensitizing index (PI) [2] | GI50 ([2]; DU145, dark, read-out: GI50) [nM] | SI (vs MC3T3) DU145 Blue ([2]; blue light 458 nm) | SI (vs NIH-3T3) DU145 Dark ([2]; dark) | GI50 [2, 8] [nM] | GI50 [3, 9] [nM] | Photosensitizing index (PI) [3] | GI50 ([3]; 22Rv1, dark, read-out: GI50) [nM] | GI50 [3, 10] [nM] | SI (vs NIH-3T3) 22Rv1 Blue ([3]; blue light 458 nm) | SI (vs MC3T3) 22Rv1 Dark ([3]; dark) | GI50 [3, 11] [nM] | GI50 [4, 12] [nM] | Photosensitizing index (PI) ([4]; C4-2b) | GI50 ([4]; C4-2b, dark, read-out: GI50) [nM] | SI (vs MC3T3) C4-2b Blue [4] | SI (vs NIH-3T3) C4-2b Blue [4] | further results |
| --- | --- | --- | --- | --- | --- | --- | --- | --- | --- | --- | --- | --- | --- | --- | --- | --- | --- | --- | --- | --- | --- |
| F[P-](F)(F)(F)(F)F.O=C(O)CC[C@H](NC(=O)N[C@@H](CCCCNC(=O)CCn1cc[n+]2[c]1[Ir-3]13([c]4ccccc4-c4c5ccccc5cc[n+]41)([c]1ccccc1-c1c4ccccc4cc[n+]13)[n+]1ccccc1-2)C(=O)O)C(=O)O [III-h] | 310 | 1410 | 1410 | 18.5 | 26100 | 5.9 | >3.8 | 26100 | 140 | 29.3 | 4100 | 140 | 131.9 | 12.9 | 4100 | 310 | 12.9 | 4000 | 27.0 | 61.9 | SI (vs MC3T3) DU145 Dark ([2]; dark): 2.0; SI (vs NIH-3T3) 22Rv1 Dark ([3]; dark): >25; GI50 ([4]; 8 h in the dark, blue light 458 nm 10 min, then dark up to 72 h, read-out: GI50 C4-2b Blue): 310 nM; SI (vs MC3T3) C4-2b Dark ([4]; dark): 13.0; GI50 [5]: 1600 nM |
| F[P-](F)(F)(F)(F)F.O=C(O)CC[C@H](NC(=O)N[C@@H](CCCCNC(=O)CCn1cc[n+]2[c]1[Ir-3]13([c]4ccccc4-c4sc5ccccc5[n+]41)([c]1ccccc1-c1sc4ccccc4[n+]13)[n+]1ccccc1-2)C(=O)O)C(=O)O [III-k] | 310 | 2200 | 2180 | 7.5 | 16300 | 15.5 | >6.1 | 16300 | 390 | 13.1 | 5100 | 8390 | 77.3 | 18.8 | 5100 | 410 | 12.9 | 5300 | 83.3 | 73.9 | SI (vs NIH-3T3) DU145 Blue ([2]; blue light 458 nm): 13.8; SI (vs MC3T3) 22Rv1 Blue ([3]; blue light 458 nm): 87.1; SI (vs MC3T3) C4-2b Dark ([4]; dark): 17.9; GI50 ([4]; in the dark, 72 h, read-out: GI50 C4-2b Dark): 5300 nM; GI50 [5]: 1600 nM |
